# Laboratory results: ChEMBL document CHEMBL3507680, “University of Dundee, Gates Library screen for HepG2 cell viability”
# Assay: Human HepG2 cell viability assay in 384 well format
# Format: toxicity, cell-based
# Parameters: dose 125 nL, time 70.5 hour; cytotoxicity at 70.5 h: concentration not given beside the values
# Details: HepG2 cells, read-out: Inhibition
row,SMILES,cytotoxicity at 70.5 h [%]
1,O=S(=O)(c1cccnc1)N1C[C@@H]2CC[C@H](C1)N(Cc1ccccc1)C2,-6.7
2,O=C1CCCCN1CSc1nnnn1-c1ccc(Cl)cc1,-4.94
3,Cc1cnc(CCNC(=O)NCCc2ccc(O)cc2)s1,-3.5
4,CCn1cc(S(=O)(=O)NC2(CN3CCOCC3)CCCCC2)c(C)n1,-0.203
5,N[C@H]1CN(CCCOc2ccccc2)C[C@@H]1C1CC1,-3.74
6,CC(=O)c1cc(C(=O)N2Cc3ccccc3OC3(CCOCC3)C2)cs1,6.07
7,CCc1noc(C2CCCCN2C(=O)c2cccs2)n1 (stereo not drawn),-4.33
8,Cc1ccc(C(=O)N2C[C@@H]3CN(S(C)(=O)=O)CCO[C@@H]3C2)s1,0.775
9,Cn1c2ncccc2c(=O)n1CC(=O)NCCc1c(F)cccc1F,-7.19
10,CNc1nc(CN2C[C@@H](NC(C)=O)[C@H](c3ccc(C)o3)C2)cs1,-16.5
11,Cc1c[nH]c(C2CCCN(Cc3cccc(C(=O)O)c3)C2)n1 (stereo not drawn),-4.03
12,Cc1cnc2c(c1NCc1ccncc1)c(=O)n(C)c(=O)n2C,-2.95
13,O=C(NCCc1c[nH]c2ccccc12)C1CCC(Cn2cnnn2)CC1 (stereo not drawn),19.8
14,Cc1ccc(N2CCCc3sc(C(=O)NCCC#N)nc32)nn1,-4.91
15,CC(=O)N1[C@H](CN(C)C)C[C@@H]2CN(c3ncc(F)cn3)CC[C@@H]21,-6.27
16,N#Cc1c(SCCN2CCCCCC2)sc2c(O)cc(O)nc12,12.1
17,CC(C)c1nc(C(=O)N2C[C@H]3CC[C@@H]2CN(C2CCOCC2)C3)cs1,-7.88
18,NC(=O)[C@@H]1Cc2ccccc2CN1CCc1cccs1,-10
19,CN1CCC(NC(=O)c2cc(Cl)cc(Br)c2O)C1=O (stereo not drawn),-5.52
20,CCc1cc(C(=O)N2CCC(C3CCN(c4ncccn4)CC3)C2)on1 (stereo not drawn),2.57
21,Cc1ccc(C(C(=O)N2CCC(Cc3noc(C)n3)CC2)N(C)C)cc1 (stereo not drawn),-8.55
22,CCc1nccn1C1CCCN(C(=O)CCCc2ccccn2)C1 (stereo not drawn),-2.48
23,CC(=O)N1CCC(c2n[nH]c3nccnc23)CC1,-7.48
24,COc1ccc(C2=NOC(CO)C2)cc1 (stereo not drawn),-14.5
25,O=C(C1CC1)N1CCC(Nc2nc(O)cc(-c3ccsc3)n2)CC1,-8.33
26,O=C(c1ccc(C(F)(F)F)nc1)N1CCCC(n2cncn2)C1 (stereo not drawn),-1.03

row,SMILES,cytotoxicity at 70.5 h [%]
1,CN(C)C(=O)CN1CCCC2(CCN(c3ccsc3)C2=O)C1 (stereo not drawn),23.7
2,CCNc1ncc(CN(CCN(C)C)Cc2ccc(C)s2)cn1,-7.34
3,CC(c1ccccn1)N(C)Cc1ccc(CCC(C)(C)O)cc1 (stereo not drawn),-1.13
4,CN(C)c1ncc(-c2ccncc2)c(CCNC(=O)C2CC2)n1,-5.57
5,CC(C)c1noc(CCNC(=O)NCC2Cc3ccccc3O2)n1 (stereo not drawn),-13.5
6,O=C(C1CCOC1)N1CCc2ncnc(-c3cccnc3)c2CC1 (stereo not drawn),15.9
7,CN(CCC#N)C(=O)Cn1nnnc1C(C)(C)C,-16.8
8,Cc1cccc(-c2nc(N)nc3c2CN(C(=O)c2cc(C)n[nH]2)C3C)c1 (stereo not drawn),-13.9
9,CC(C)n1cc(-c2c(C#N)c(N)nc3c2COCC3)cn1,10.2
10,Cc1cc(C)n(CC2CCCN2C(=O)c2cccc3c2OCCO3)n1 (stereo not drawn),-3.57
11,CC(c1ccncc1)N(C)S(C)(=O)=O (stereo not drawn),-5.4
12,CC(C)c1nc(CN(C)C(=O)C2CC(=O)N(Cc3ccncc3)C2)cs1 (stereo not drawn),5.05
13,CCC1=NN2C(=N)/C(=C\c3cccn3-c3cccc(Cl)c3)C(=O)N=C2S1,-0.175
14,CCCc1nnsc1C(=O)N1CCN(CC(O)C2CC2)CC1 (stereo not drawn),14.6
15,Cc1cc(-c2ccc(=O)n(C3CCN(S(=O)(=O)N(C)C)CC3)n2)c(C)o1,3.38
16,O=C(CCn1c(C(F)F)cc2cccnc21)NC1CCCCC1,-5.83
17,Cc1nnc(CN2CCC(Oc3ccc(C)c(C)c3)CC2)o1,-4.89
18,CS(=O)(=O)N1C[C@H](NC(=O)c2ccno2)[C@@H]2OCCC[C@@H]21,-7.45
19,COc1ncccc1NC(=O)NCC1CCS(=O)(=O)C1 (stereo not drawn),-18.6
20,CCc1cccc(NS(=O)(=O)c2cc3c(c(C(=O)O)c2)OCCO3)c1,4.16
21,CCC(=O)N1CSCC1C(=O)N(C)CCc1ccccc1 (stereo not drawn),7.14
22,CSCC(=O)N[C@H]1CC[C@H](Nc2nccc(-c3cccnc3)n2)C1,16.3
23,O=C(NS(=O)(=O)Cc1ccc(F)cc1)C1CCOc2ccccc21 (stereo not drawn),-9.19
24,Cc1cc(C(=O)N2CCCC2c2nc(C)cc(O)n2)on1 (stereo not drawn),-8.09
25,Cc1cc(NCC(=O)N(C)C(C)c2cccs2)c(C(N)=O)cc1F (stereo not drawn),1.44
26,O=C(O)c1c[nH]c2cc(NS(=O)(=O)c3ccc(Cl)cc3F)ccc12,-5.42

row,SMILES,cytotoxicity at 70.5 h [%]
1,Cc1n[nH]c(C)c1-c1nccnc1CC1CCN(S(C)(=O)=O)C1 (stereo not drawn),-7.83
2,Fc1ccc(-c2nc(CN3CCn4c(nnc4C4CC4)C3)co2)cc1,-8.13
3,CN(C)[C@H]1COC[C@@H]2CN(Cc3ccc4c(c3)OCO4)C[C@@H]21,-3.62
4,c1ccc(-c2noc3c2CN(CC2CC2)CC3)cc1,-3.25
5,Cc1nn(C)c(C)c1CCC(=O)N(C)Cc1ccc2nsnc2c1,-4.18
6,CCc1ccc(C(=O)N2CCCC(CNS(C)(=O)=O)C2)o1 (stereo not drawn),-10.7
7,CCn1ccnc1CN1CCN(CC(=O)NC(=O)NC2CC2)CC1,-8.53
8,CCn1c(C2CCN(C(=O)c3ccc4cc[nH]c4c3)CC2)n[nH]c1=O,9.25
9,COc1ccc(CCNC(=O)C(C)Nc2ccc(C)c(C)c2)cc1 (stereo not drawn),21
10,O=C1O[C@@H]2CN(C3CCOCC3)C[C@@H]2N1CCCc1ccc(F)cc1,14.2
11,COc1ccc(CCN(C)C(=O)c2cc(C(C)=O)c[nH]2)cc1OC,-11.9
12,CN1CCC(O)(CCNC(=O)[C@@]23CNC[C@@H]2CN(C2CCCC2)C3)CC1,11.4
13,CC(=O)Nc1ccc(Cl)c(C(=O)N(C)C(C)c2ccon2)c1 (stereo not drawn),5
14,O=C(NCc1nn(-c2ccccc2)c2c1CCC2)NC1CC1,-19
15,CC(C)N(C)CC(=O)Nc1nccn1Cc1ccccc1Cl,-2.07
16,Cc1cnccc1CN(C)Cc1c[nH]nc1-c1ccc(F)cc1F,3.5
17,CCC(CN1CCCC1)NC(=O)Cc1c(C)[nH]c2c(C)cc(C)cc12 (stereo not drawn),12.8
18,c1ccc(-c2cc(CNCCN3CCCC3)c3nnnn3c2)cc1,-3.47
19,CCc1nc(CN(C)C(=O)NCc2cccc(NC(C)=O)c2)cs1,-10.2
20,Cc1noc(CCNC(=O)NCc2ccc(N3CCCCC3)cc2)n1,-5.09
21,Cc1nccn1-c1ncccc1CNC(=O)c1ccc(O)nc1,-10.6
22,CCC[C@]12CN3C[C@](CCC)(CN(C1)C3c1[nH]c(=O)[nH]c(=O)c1C)C2=O (stereo partly drawn),-10.7
23,CCCC(NC(=O)c1ccc(OC)cc1F)c1nnn[nH]1 (stereo not drawn),-3.7
24,CN(c1ccc(C(N)=O)nn1)C1CCC1,-15.8
25,O=C(C[C@@H]1COC[C@H]2CN(Cc3ccc(F)cc3)C[C@@H]12)N1CCOCC1,21.2
26,COCCN1C(=O)CC[C@@H]2[C@H]1CCN2C(=O)N(C)C,-8.72
